Experimental data reported in patent US20060183902A1, “Dihydroindolyl methanones as alpha 1a/1d adrenoreceptor modulators for the treatment of benign prostatic hypertrophy and lower urinary tract symptoms” (priority 2005, published 2006).
“And” between values parts separate entries of the source, which are not always exact repeats. Identical values can stand only once. Like-named read-outs stand apart in the source and are kept apart here.

Tests used:
α1d-AR = biological target: T1, α1d-AR (Homo sapiens, UniProt P25100); assay: α1-Adrenergic receptor radio-ligand (125I-HEAT) binding assay, α1d subtype; settings: COS-7 cell membranes transfected with α1d-AR, 125I-HEAT 50 pM
T1 construct: expressed in transfected cells; host or cells: COS-7
T1 sequence (P25100 1-572): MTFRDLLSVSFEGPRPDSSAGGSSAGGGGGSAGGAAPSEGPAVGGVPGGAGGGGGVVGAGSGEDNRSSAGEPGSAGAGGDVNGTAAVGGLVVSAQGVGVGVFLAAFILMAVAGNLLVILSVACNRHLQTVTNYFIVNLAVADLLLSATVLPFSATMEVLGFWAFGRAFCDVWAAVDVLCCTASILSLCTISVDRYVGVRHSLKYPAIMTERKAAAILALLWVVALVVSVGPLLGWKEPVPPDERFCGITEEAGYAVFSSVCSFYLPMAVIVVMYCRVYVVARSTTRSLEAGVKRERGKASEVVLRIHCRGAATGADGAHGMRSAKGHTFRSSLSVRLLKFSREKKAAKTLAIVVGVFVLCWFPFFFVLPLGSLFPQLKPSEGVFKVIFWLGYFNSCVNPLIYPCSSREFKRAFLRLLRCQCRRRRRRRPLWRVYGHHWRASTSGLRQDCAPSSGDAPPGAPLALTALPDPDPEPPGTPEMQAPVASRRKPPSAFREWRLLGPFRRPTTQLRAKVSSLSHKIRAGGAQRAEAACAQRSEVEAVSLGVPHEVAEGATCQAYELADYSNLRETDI
Summary of the method: (§1)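 Membranes from COS-7 cells transfected with a single α1-AR subtype, incubated 1 h at rt with 50 pM 125I-HEAT and compound (1 pM–10 µM, half-log steps, final) in Tris/EDTA/NaCl pH 7.4. Bound radioactivity collected by GF/C filtration and scintillation counting, triplicates; Ki derived.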

α1a-AR = biological target: T2, α1a-AR (Homo sapiens, UniProt P35348); assay: α1-Adrenergic receptor radio-ligand (125I-HEAT) binding assay, α1a subtype; settings: COS-7 cell membranes transfected with α1a-AR, 125I-HEAT 50 pM
T2 construct: expressed in transfected cells; host or cells: COS-7
T2 sequence (P35348 1-466): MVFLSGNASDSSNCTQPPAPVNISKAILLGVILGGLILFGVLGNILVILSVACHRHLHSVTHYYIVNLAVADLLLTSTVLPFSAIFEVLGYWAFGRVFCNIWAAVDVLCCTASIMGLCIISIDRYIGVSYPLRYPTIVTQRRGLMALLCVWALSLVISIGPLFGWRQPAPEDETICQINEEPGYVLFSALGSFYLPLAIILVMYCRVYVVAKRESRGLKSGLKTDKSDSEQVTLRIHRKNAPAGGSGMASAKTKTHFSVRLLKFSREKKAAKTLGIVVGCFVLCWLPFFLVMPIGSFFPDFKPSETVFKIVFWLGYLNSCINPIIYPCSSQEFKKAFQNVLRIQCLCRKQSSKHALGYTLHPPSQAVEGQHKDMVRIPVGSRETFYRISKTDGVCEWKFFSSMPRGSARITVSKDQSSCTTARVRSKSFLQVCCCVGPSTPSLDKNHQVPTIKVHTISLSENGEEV
Summary of the method: as §1

α1b-AR = biological target: T3, α1b-AR (Homo sapiens, UniProt P35368); assay: α1-Adrenergic receptor radio-ligand (125I-HEAT) binding assay, α1b subtype; settings: COS-7 cell membranes transfected with α1b-AR, 125I-HEAT 50 pM
T3 construct: expressed in transfected cells; host or cells: COS-7
T3 sequence (P35368 1-520): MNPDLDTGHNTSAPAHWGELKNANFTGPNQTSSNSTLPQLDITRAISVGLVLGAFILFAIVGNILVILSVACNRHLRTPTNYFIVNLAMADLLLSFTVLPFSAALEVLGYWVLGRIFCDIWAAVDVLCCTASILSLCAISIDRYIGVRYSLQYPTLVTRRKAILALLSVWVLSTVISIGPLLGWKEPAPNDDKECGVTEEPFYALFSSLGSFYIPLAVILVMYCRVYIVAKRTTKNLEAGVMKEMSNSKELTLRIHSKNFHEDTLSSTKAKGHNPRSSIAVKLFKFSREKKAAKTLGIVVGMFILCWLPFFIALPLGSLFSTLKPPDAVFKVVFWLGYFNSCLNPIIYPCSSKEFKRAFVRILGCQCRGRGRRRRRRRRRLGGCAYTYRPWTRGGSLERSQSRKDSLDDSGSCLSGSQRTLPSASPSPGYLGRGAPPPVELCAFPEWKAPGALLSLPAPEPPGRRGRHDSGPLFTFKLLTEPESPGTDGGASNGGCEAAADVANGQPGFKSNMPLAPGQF
Summary of the method: as §1

[1] = read-out: Receptor Binding, Ki α1d-AR
[2] = read-out: Receptor Binding, Ki α1a-AR
[3] = read-out: Receptor Binding, Ki α1b-AR

Compound	Ki (α1d-AR; [1])	Ki (α1a-AR; [2])	Ki (α1b-AR; [3])	melting point	Ki (α1d-AR; Receptor Binding, Ki α1d-AR)	Ki (α1a-AR; Receptor Binding, Ki α1a-AR)	Ki (α1b-AR; Receptor Binding, Ki α1b-AR)
CC(C)Oc1ccccc1N1CCN(Cc2cccc(C(=O)N3CCc4cc(N)ccc43)c2)CC1 [Cpd 1, (5-amino-2,3-dihydro-indol-1-yl)-{3-[4-(2-isopropoxy-phenyl)-piperazin-1-ylmethyl]-phenyl}-methanone]	8.6 nM	1.5 nM	301 nM	137 to 139 °C	–	–	–
Cc1ccc(OC(=O)Nc2ccc3c(c2)CCN3C(=O)c2cccc(CN3CCN(c4ccccc4OC(C)C)CC3)c2)cc1 [Cpd 4, (1-{3-[4-(2-isopropoxy-phenyl)-piperazin-1-ylmethyl]-benzoyl}2,3-dihydro-1H-indol-5-yl)-carbamic acid p-tolyl ester]	–	–	–	166 to 168 °C	20 nM	2.4 nM	96 nM
CC(C)Oc1ccccc1N1CCN(Cc2cccc(C(=O)N3CCc4ccc(NCc5c(F)cccc5F)cc43)c2)CC1 [Cpd 6, [6-(2,6-difluoro-benzylamino)-2,3-dihydro-indol-1-yl]-{3-[4-(2-isopropoxy-phenyl)-piperazin-1-ylmethyl]-phenyl}-methanone]	2.4 nM	2 nM	856 nM	137 to 139 °C	–	–	–
CC(C)Oc1ccccc1N1CCN(Cc2cccc(C(=O)N3CCc4cc(NCc5c(F)cccc5F)ccc43)c2)CC1 [Cpd 9, [5-(2,6-difluoro-benzylamino)-2,3-dihydro-indol-1-yl]-{3-[4-(2-isopropoxy-phenyl)-piperazin-1-ylmethyl]-phenyl}-methanone]	17 nM	26 nM	2050 nM	127 to 130 °C	–	–	–
CCCCCCCCc1ccc(CNc2ccc3c(c2)CCN3C(=O)c2cccc(CN3CCN(c4ccccc4OC(C)C)CC3)c2)cc1 [Cpd 23, {3-[4-(2-isopropoxy-phenyl)-piperazin-1-ylmethyl]-phenyl}-[5-(4-octyl-benzylamino)-2,3-dihydro-indol-1-yl]-methanone]	317 nM	195 nM	–	116 to 118 °C	–	–	–
CC(C)Oc1ccccc1N1CCN(Cc2cccc(C(=O)N3CCc4cc(Br)ccc43)c2)CC1 [Cpd 66, (5-bromo-2,3-dihydro-indol-1-yl)-{3-[4-(2-isopropoxy-phenyl)-piperazin-1-ylmethyl]-phenyl}-methanone]	0.3 nM	1.3 nM	82.8 nM	–	–	–	–
CC(C)Oc1ccccc1N1CCN(Cc2cccc(C(=O)N3CCc4cc(Cl)ccc43)c2)CC1 [Cpd 67, (5-chloro-2,3-dihydro-indol-1-yl)-{3-[4-(2-isopropoxy-phenyl)-piperazin-1-ylmethyl]-phenyl}-methanone]	14.7 nM and 22 nM	2.1 nM and 12 nM	1140 nM and 1260 nM	–	–	–	–
CC(C)Oc1ccccc1N1CCN(Cc2cccc(C(=O)N3CCc4cc(F)ccc43)c2)CC1 [Cpd 68, (5-fluoro-2,3-dihydro-indol-1-yl)-{3-[4-(2-isopropoxy-phenyl)-piperazin-1-ylmethyl]-phenyl}-methanone]	13 nM	13 nM	288 nM	–	–	–	–
CC(C)Oc1ccccc1N1CCN(Cc2cccc(C(=O)N3CCc4cc(S(=O)(=O)N(C)C)ccc43)c2)CC1 [Cpd 70, 1-{3-[4-(2-isopropoxy-phenyl)-piperazin-1-ylmethyl]-benzoyl}-2,3-dihydro-1H-indole-5-sulfonic acid dimethylamide]	41 nM	107 nM	1760 nM	–	–	–	–
CC(C)Oc1ccccc1N1CCN(Cc2cccc(C(=O)N3CCc4cc(S(C)(=O)=O)ccc43)c2)CC1 [Cpd 71, {3-[4-(2-isopropoxy-phenyl)-piperazin-1-ylmethyl]-phenyl}-(5-methanesulfonyl-2,3-dihydro-indol-1-yl)-methanone]	16 nM and 21 nM	14 nM and 17.5 nM	716 nM and 720 nM	–	–	–	–
CC(C)Oc1ccccc1N1CCN(Cc2cccc(C(=O)N3CCc4ccc(NC(=O)Nc5c(F)cccc5F)cc43)c2)CC1 [Cpd 73, 1-(2,6-difluoro-phenyl)-3-(1-{3-[4-(2-isopropoxy-phenyl)-piperazin-1-ylmethyl]-benzoyl}-2,3-dihydro-1H-indol-6-yl)-urea]	1.5 nM	31 nM	208 nM	–	–	–	–

Further compounds by falling Ki (α1d-AR; [1]), results first:

Ki (α1d-AR; [1])	Ki (α1a-AR; [2])	Ki (α1b-AR; [3])	melting point	Compound	Ki (α1d-AR; Receptor Binding, Ki α1d-AR)	Ki (α1a-AR; Receptor Binding, Ki α1a-AR)	Ki (α1b-AR; Receptor Binding, Ki α1b-AR)
98 nM	65 nM	3450 nM	80 to 83 °C	CC(C)Oc1ccccc1N1CCN(Cc2cccc(C(=O)N3CCc4cc(NS(=O)(=O)c5cccc6c(N(C)C)cccc56)ccc43)c2)CC1 [Cpd 3, 5-dimethylamino-naphthalene-1-sulfonic acid (1-{3-[4-(2-isopropoxy-phenyl)-piperazin-1-ylmethyl]-benzoyl}-2,3-dihydro-1H-indol-5-yl)-amide]	–	–	–
46 nM	15 nM	154 nM	–	CC(C)Oc1ccccc1N1CCN(Cc2cccc(C(=O)N3CCc4cc(-c5ccccc5)ccc43)c2)CC1 [Cpd 72, {3-[4-(2-isopropoxy-phenyl)-piperazin-1-ylmethyl]-phenyl}-(5-phenyl-2,3-dihydro-indol-1-yl)-methanone]	–	–	–
15 nM	14 nM	389 nM	74 to 76 °C	CC(C)Oc1ccccc1N1CCN(Cc2cccc(C(=O)N3CCc4cc(NCc5ccc(C(F)(F)F)cc5)ccc43)c2)CC1 [Cpd 8, {3-[4-(2-isopropoxy-phenyl)-piperazin-1-ylmethyl]-phenyl}-[5-(4-trifluoromethyl-benzylamino)-2,3-dihydro-indol-1-yl]-methanone]	–	–	–
9.7 nM	1.1 nM	321 nM	73 to 76 °C	CC(C)Oc1ccccc1N1CCN(Cc2cccc(C(=O)N3CCc4cc(NS(=O)(=O)c5ccc6ccccc6c5)ccc43)c2)CC1 [Cpd 2, naphthalene-2-sulfonic acid (1-{3-[4-(2-isopropoxy-phenyl)-piperazin-1-ylmethyl]-benzoyl}-2,3-dihydro-1H-indol-5-yl)-amide]	–	–	–
7 nM	5 nM	6260 nM	156 to 160 °C	CCOC(OCC)c1ccc(CNc2ccc3c(c2)N(C(=O)c2cccc(CN4CCN(c5ccccc5OC(C)C)CC4)c2)CC3)cc1 [Cpd 11]	–	–	–
4 nM	0.04 nM	43 nM	192 to 195 °C	Cc1c(S(=O)(=O)Nc2ccc3c(c2)N(C(=O)c2cccc(CN4CCN(c5ccccc5OC(C)C)CC4)c2)CC3)sc2ccc(Cl)cc12 [Cpd 18, 5-chloro-3-methyl-benzo[b]thiophene-2-sulfonic acid (1-{3-[4-(2-isopropoxy-phenyl)-piperazin-1-ylmethyl]-benzoyl}-2,3-dihydro-1H-indol-6-yl)-amide]	–	–	–
2.3 nM	26 nM	383 nM	132 to 134 °C	CC(=O)Nc1ccc(S(=O)(=O)Nc2ccc3c(c2)CCN3C(=O)c2cccc(CN3CCN(c4ccccc4OC(C)C)CC3)c2)cc1 [Cpd 19, N-[4-(1-{3-[4-(2-isopropoxy-phenyl)-piperazin-1-ylmethyl]-benzoyl}-2,3-dihydro-1H-indol-5-ylsulfamoyl)-phenyl]-acetamide]	–	–	–
